Measured values reported in patent US4882349A, “Pyrrolacetic amides having antiinflammatory activity” (priority 1982, dated 1989).
Like-named read-outs stand apart in the source and are kept apart here.

Legend:
[1] = tested on: gastric lesions; assay type: in vivo, male Wistar rats; settings: 4 consecutive days; for gastric damage index: I=mean no. of lesions+mean of severity+% incidence/10; for mean severity: scale 0 (no lesion) to 5 (perforations)
Description: Male Wistar rats weighing 180 g were randomized into groups of 10. Three doses of each compound were administered. One group received the vehicle alone (10 ml/kg b.w.). Each dose was given orally for four days consecutively and the rats were sacrificed on the fifth day for necropsy. The ulcerogenic effect was evaluated by the following scale:
(1) each haemorrhagic point at least 1 mm in diameter was scored as 1 lesion,
(2) haemorrhagic points less than 1 mm in diameter were scored in the following manner:
(c) 20 to 29=three lesions
By means of this scale it was possible to obtain the gastric damage index:
I=mean no. of lesions+mean of severity+% incidence/10

[2] = tested on: brewers' yeast-induced hyperthermia; test: antipyretic activity, brewers' yeast-induced hyperthermia; assay type: in vivo, albino male Wistar rats
Description: The animals were caged under the same conditions as those described in the preceding tests. Five hours following […], determined by a rectal probe connected to a YSI thermometer (73 ATP model, Yellow Springs Instrument Company) were selected for the experiment. The animals were then randomized into groups of 10 and the compounds under examination and the vehicle were administered via the oral and parenteral routes testing each dose in two groups. Body temperature was determined at one, two and three hours after administration of the substances. […]

[3] = solubility; assay type: physicochemical
[4] = tested on: phenyl-p-quinone-induced writhing (abdominal contractions); test: phenylquinone-induced writhing test, oral administration 1-24 h before phenyl-quinone (duration of analgesia); assay type: in vivo, male Wistar rats
Description: Male Wistar rats weighing 110±5 g were caged for 10 days at 22±1° C. and given a balanced diet with free access to water. Twenty-four hours before the experiment the animals were randomized into groups of 10 and fasted for 14 hours but with free access to water. Each dose was tested in 3 groups of rats. […] alone (0.5% carboxymethyl-cellulose in physiological saline) in the control animals, each rat was given 2 ml of a 5% absolute ethanol aqueous solution containing 0.36% of phenyl-p-quinone (Sigma Chemical Company) in order to provoke writhings. Fifteen minutes after administration of phenyl-p-quinone the number of contractions were counted for 20 minutes. The inhibiting effect of the compounds under examination on the abdominal contractions induced by phenyl-p-quinone was calculated by the following formula: % protection= [formula]

Compound: Cc1ccc(C(=O)c2ccc(CC(=O)NCC(=O)O)n2C)cc1 [Compound 1-c, 1-methyl-5-p-toluoylpyrrole-2-acetamidoacetic acid]
- % incidence/10 (head is drawing 38) ([1]; 50 mg/Kg orally): 7
- mean no. of lesions ([1]; 50 mg/Kg orally): 1
- gastric damage index ([1]; 50 mg/Kg orally): 9.5
- mean severity ([1]; 50 mg/Kg orally): 1.5
- % incidence/10 (head is drawing 38) ([1]; 100 mg/Kg orally): 8
- mean no. of lesions ([1]; 100 mg/Kg orally): 2
- gastric damage index ([1]; 100 mg/Kg orally): 12
- mean severity ([1]; 100 mg/Kg orally): 2
- % incidence/10 (head is drawing 38) ([1]; 200 mg/Kg orally): 9
- mean no. of lesions ([1]; 200 mg/Kg orally): 2.5
- gastric damage index ([1]; 200 mg/Kg orally): 13.5
- mean severity ([1]; 200 mg/Kg orally): 2
- % Temperature decrease ([2]; 50 mg/Kg i.p., 1 h): 20.0%
- % Temperature decrease ([2]; 50 mg/Kg i.p., 2 h): 21.9%
- % Temperature decrease ([2]; 50 mg/Kg i.p., 3 h): 36.0%
- % Temperature decrease ([2]; 50 mg/Kg per os, 1 h): 15.0%
- % Temperature decrease ([2]; 50 mg/Kg per os, 2 h): 23.0%
- % Temperature decrease ([2]; 50 mg/Kg per os, 3 h): 32.0%
- % Temperature decrease ([2]; 75 mg/Kg i.p., 1 h): 19.0%
- % Temperature decrease ([2]; 75 mg/Kg i.p., 2 h): 32.6%
- % Temperature decrease ([2]; 75 mg/Kg i.p., 3 h): 45.2%
- % Temperature decrease ([2]; 75 mg/Kg per os, 1 h): 16.5%
- % Temperature decrease ([2]; 75 mg/Kg per os, 2 h): 30.7%
- % Temperature decrease ([2]; 75 mg/Kg per os, 3 h): 42.1%
- % Temperature decrease ([2]; 100 mg/Kg i.p., 1 h): 35.0%
- % Temperature decrease ([2]; 100 mg/Kg i.p., 2 h): 49.1%
- % Temperature decrease ([2]; 100 mg/Kg i.p., 3 h): 65.7%
- % Temperature decrease ([2]; 100 mg/Kg per os, 1 h): 27.1%
- % Temperature decrease ([2]; 100 mg/Kg per os, 2 h): 31.2%
- % Temperature decrease ([2]; 100 mg/Kg per os, 3 h): 57.9%
- Solubility [3]: soluble in alkali

Compound: CCOC(=O)c1ccc(NC(=O)Cc2ccc(C(=O)c3ccc(C)cc3)n2C)cc1 [Compound 1-h, 1-methyl-5-p-toluoylpyrrole-2-N-(4-carboxyethyl-phenyl) acetamide]
- % incidence/10 (head is drawing 38) ([1]; 50 mg/Kg orally): 7
- mean no. of lesions ([1]; 50 mg/Kg orally): 1
- gastric damage index ([1]; 50 mg/Kg orally): 9
- mean severity ([1]; 50 mg/Kg orally): 1
- % incidence/10 (head is drawing 38) ([1]; 100 mg/Kg orally): 8
- mean no. of lesions ([1]; 100 mg/Kg orally): 1.5
- gastric damage index ([1]; 100 mg/Kg orally): 10.5
- mean severity ([1]; 100 mg/Kg orally): 1
- % incidence/10 (head is drawing 38) ([1]; 200 mg/Kg orally): 8
- mean no. of lesions ([1]; 200 mg/Kg orally): 2
- gastric damage index ([1]; 200 mg/Kg orally): 11.5
- mean severity ([1]; 200 mg/Kg orally): 1.5
- % Temperature decrease ([2]; 50 mg/Kg i.p., 1 h): 12.0%
- % Temperature decrease ([2]; 50 mg/Kg i.p., 2 h): 29.1%
- % Temperature decrease ([2]; 50 mg/Kg i.p., 3 h): 36.2%
- % Temperature decrease ([2]; 50 mg/Kg per os, 1 h): 13.0%
- % Temperature decrease ([2]; 50 mg/Kg per os, 2 h): 28.0%
- % Temperature decrease ([2]; 50 mg/Kg per os, 3 h): 31.1%
- % Temperature decrease ([2]; 75 mg/Kg i.p., 1 h): 18.0%
- % Temperature decrease ([2]; 75 mg/Kg i.p., 2 h): 27.2%
- % Temperature decrease ([2]; 75 mg/Kg i.p., 3 h): 39.4%
- % Temperature decrease ([2]; 75 mg/Kg per os, 1 h): 17.0%
- % Temperature decrease ([2]; 75 mg/Kg per os, 2 h): 29.1%
- % Temperature decrease ([2]; 75 mg/Kg per os, 3 h): 39.4%
- % Temperature decrease ([2]; 100 mg/Kg i.p., 1 h): 23.1%
- % Temperature decrease ([2]; 100 mg/Kg i.p., 2 h): 39.3%
- % Temperature decrease ([2]; 100 mg/Kg i.p., 3 h): 60.2%
- % Temperature decrease ([2]; 100 mg/Kg per os, 1 h): 21.0%
- % Temperature decrease ([2]; 100 mg/Kg per os, 2 h): 35.1%
- % Temperature decrease ([2]; 100 mg/Kg per os, 3 h): 51.8%

Compound: Cc1ccc(C(=O)c2ccc(CC(=O)N3CCOCC3)n2C)cc1 [Compound 3-a, 1-methyl-5-p-toluoylpyrrole-2-N-(4-morpholinyl) acetamide]
- % incidence/10 (head is drawing 38) ([1]; 50 mg/Kg orally): 7
- mean no. of lesions ([1]; 50 mg/Kg orally): 1
- gastric damage index ([1]; 50 mg/Kg orally): 9
- mean severity ([1]; 50 mg/Kg orally): 1
- % incidence/10 (head is drawing 38) ([1]; 100 mg/Kg orally): 8
- mean no. of lesions ([1]; 100 mg/Kg orally): 1.5
- gastric damage index ([1]; 100 mg/Kg orally): 11.5
- mean severity ([1]; 100 mg/Kg orally): 2
- % incidence/10 (head is drawing 38) ([1]; 200 mg/Kg orally): 9
- mean no. of lesions ([1]; 200 mg/Kg orally): 1.5
- gastric damage index ([1]; 200 mg/Kg orally): 12.5
- mean severity ([1]; 200 mg/Kg orally): 2
- % Temperature decrease ([2]; 50 mg/Kg i.p., 1 h): 16.0%
- % Temperature decrease ([2]; 50 mg/Kg i.p., 2 h): 26.0%
- % Temperature decrease ([2]; 50 mg/Kg i.p., 3 h): 36.7%
- % Temperature decrease ([2]; 50 mg/Kg per os, 1 h): 15.5%
- % Temperature decrease ([2]; 50 mg/Kg per os, 2 h): 23.0%
- % Temperature decrease ([2]; 50 mg/Kg per os, 3 h): 32.1%
- % Temperature decrease ([2]; 75 mg/Kg i.p., 1 h): 19.0%
- % Temperature decrease ([2]; 75 mg/Kg i.p., 2 h): 30.2%
- % Temperature decrease ([2]; 75 mg/Kg i.p., 3 h): 39.4%
- % Temperature decrease ([2]; 75 mg/Kg per os, 1 h): 16.2%
- % Temperature decrease ([2]; 75 mg/Kg per os, 2 h): 29.1%
- % Temperature decrease ([2]; 75 mg/Kg per os, 3 h): 39.4%
- % Temperature decrease ([2]; 100 mg/Kg i.p., 1 h): 21.3%
- % Temperature decrease ([2]; 100 mg/Kg i.p., 2 h): 36.1%
- % Temperature decrease ([2]; 100 mg/Kg i.p., 3 h): 58.1%
- % Temperature decrease ([2]; 100 mg/Kg per os, 1 h): 22.0%
- % Temperature decrease ([2]; 100 mg/Kg per os, 2 h): 29.5%
- % Temperature decrease ([2]; 100 mg/Kg per os, 3 h): 56.1%

Compound: Cc1ccc(C(=O)c2ccc(CC(=O)N3CCN(C)CC3)n2C)cc1 [Compound 3-b, 1-methyl-5-p-toluoylpyrrole-2-N-[(4-methyl)-1-piperazinyl] acetamide]
- % incidence/10 (head is drawing 38) ([1]; 50 mg/Kg orally): 7
- mean no. of lesions ([1]; 50 mg/Kg orally): 1
- gastric damage index ([1]; 50 mg/Kg orally): 9
- mean severity ([1]; 50 mg/Kg orally): 1
- % incidence/10 (head is drawing 38) ([1]; 100 mg/Kg orally): 7
- mean no. of lesions ([1]; 100 mg/Kg orally): 1
- % incidence/10 (head is drawing 38) ([1]; 200 mg/Kg orally): 8
- mean no. of lesions ([1]; 200 mg/Kg orally): 2
- % Temperature decrease ([2]; 50 mg/Kg i.p., 1 h): 12.9%
- % Temperature decrease ([2]; 50 mg/Kg i.p., 2 h): 23.0%
- % Temperature decrease ([2]; 50 mg/Kg i.p., 3 h): 38.3%
- % Temperature decrease ([2]; 50 mg/Kg per os, 1 h): 13.1%
- % Temperature decrease ([2]; 50 mg/Kg per os, 2 h): 21.0%
- % Temperature decrease ([2]; 50 mg/Kg per os, 3 h): 36.2%
- % Temperature decrease ([2]; 75 mg/Kg i.p., 1 h): 23.4%
- % Temperature decrease ([2]; 75 mg/Kg i.p., 2 h): 29.0%
- % Temperature decrease ([2]; 75 mg/Kg i.p., 3 h): 48.5%
- % Temperature decrease ([2]; 75 mg/Kg per os, 1 h): 19.0%
- % Temperature decrease ([2]; 75 mg/Kg per os, 2 h): 29.1%
- % Temperature decrease ([2]; 75 mg/Kg per os, 3 h): 40.6%
- % Temperature decrease ([2]; 100 mg/Kg i.p., 1 h): 32.9%
- % Temperature decrease ([2]; 100 mg/Kg i.p., 2 h): 39.0%
- % Temperature decrease ([2]; 100 mg/Kg i.p., 3 h): 60.1%
- % Temperature decrease ([2]; 100 mg/Kg per os, 1 h): 27.0%
- % Temperature decrease ([2]; 100 mg/Kg per os, 2 h): 35.0%
- % Temperature decrease ([2]; 100 mg/Kg per os, 3 h): 59.7%

Compound: Cc1ccc(C(=O)c2ccc(CC(=O)O)n2C)cc1 [Tolmetin Na.2H2 O, 1-methyl-5-p-toluoylpyrrole-2-acetic acid, reference compound]
- % Protection ([4]; 10 mg/Kg oral, 1 h before phenyl-quinone): 51.8%
- % Protection ([4]; 10 mg/Kg oral, 2 h before phenyl-quinone): 35.5%
- % Protection ([4]; 10 mg/Kg oral, 4 h before phenyl-quinone): 32.0%
- % Protection ([4]; 10 mg/Kg oral, 6 h before phenyl-quinone): 17.2%
- % Protection ([4]; 10 mg/Kg oral, 8 h before phenyl-quinone): 20.2%
- % Protection ([4]; 10 mg/Kg oral, 16 h before phenyl-quinone): 3.0%
- % Protection ([4]; 10 mg/Kg oral, 24 h before phenyl-quinone): 5.0%
- % Protection ([4]; 20 mg/Kg oral, 1 h before phenyl-quinone): 79.6%
- % Protection ([4]; 20 mg/Kg oral, 2 h before phenyl-quinone): 78.0%
- % Protection ([4]; 20 mg/Kg oral, 4 h before phenyl-quinone): 50.0%
- % Protection ([4]; 20 mg/Kg oral, 6 h before phenyl-quinone): 45.3%
- % Protection ([4]; 20 mg/Kg oral, 8 h before phenyl-quinone): 40.1%
- % Protection ([4]; 20 mg/Kg oral, 16 h before phenyl-quinone): 8.7%
- % Protection ([4]; 20 mg/Kg oral, 24 h before phenyl-quinone): 4.2%
- % Protection ([4]; 50 mg/Kg oral, 1 h before phenyl-quinone): 81.0%
- % Protection ([4]; 50 mg/Kg oral, 2 h before phenyl-quinone): 84.6%
- % Protection ([4]; 50 mg/Kg oral, 4 h before phenyl-quinone): 62.5%
- % Protection ([4]; 50 mg/Kg oral, 6 h before phenyl-quinone): 49.7%
- % Protection ([4]; 50 mg/Kg oral, 8 h before phenyl-quinone): 45.0%
- % Protection ([4]; 50 mg/Kg oral, 16 h before phenyl-quinone): 9.3%
- % Protection ([4]; 50 mg/Kg oral, 24 h before phenyl-quinone): 3.8%
